Data: BigSolDB 2.1

CC1(C)CCC2=C(O1)c1ccccc1C(=O)C2=O
solubility (mole fraction)
Settings | 298.15 K | 303.15 K | 308.15 K | 313.15 K | 318.15 K
in acetone | 0.0205 | 0.0216 | 0.0245 | 0.0296 | 0.0342
in acetonitrile | 0.018 | 0.0209 | 0.0227 | 0.0269 | 0.0325
in ethanol | 0.00499 | 0.00595 | 0.00664 | 0.00909 | 0.0134
in ethyl acetate | 0.00853 | 0.00936 | 0.0104 | 0.0121 | 0.0165
in isopropanol | 0.00376 | 0.00432 | 0.00528 | 0.00754 | 0.0111
in methanol | 0.0054 | 0.00654 | 0.0076 | 0.0101 | 0.0153
in n-butanol | 0.00743 | 0.00895 | 0.0108 | 0.0142 | 0.0203
in n-propanol | 0.00669 | 0.00793 | 0.00969 | 0.0146 | 0.0203
in propylene glycol | 0.00306 | 0.00308 | 0.0037 | 0.00531 | 0.00724
in sec-butanol | 0.00565 | 0.00671 | 0.0079 | 0.0104 | 0.0162
in water | 2.85e-06 | 3.72e-06 | 4.46e-06 | 5.26e-06 | 6.12e-06
